TGI data for two compounds are collected here from PubChem BioAssay (NCI).

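Each compound was tested at five concentrations against cells in 96-well plates for 48 hours. TGI: concentration producing complete growth inhibition.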 A value given as a limit tells only on which side of the number the result lay.

Some test systems named below: MALME-3M melanoma; SK-OV-3 ovarian; SW-620 colon; EKVX NSCLC; ACHN renal; TK-10 renal; BT-549 breast; IGROV1 ovarian; NCI-H23 lung; 786-0 renal; SK-MEL-28 melanoma; SN12C renal; HCT-15 colon; MDA-N; HCC-2998 colon; SK-MEL-2 melanoma; OVCAR-8 ovarian; LOX IMVI melanoma; CCRF-CEM leukemia; CAKI-1 renal.
Assay in all cases: inhibition of tumour cell growth, NCI panel, 48 h

Take `Cc1ccc(C(=O)OCC(C)C)cc1N=NN(C)C`: the TGI with MALME-3M melanoma, in the assay with SK-OV-3 ovarian, with SW-620 colon, with EKVX NSCLC, with ACHN renal and with TK-10 renal was more than 100 µM in each case. The TGI in the assay with BT-549 breast, with IGROV1 ovarian, in the assay with NCI-H23 lung, with 786-0 renal, in the assay with SK-MEL-28 melanoma and in the assay on SN12C renal was more than 100 µM each time. For the same compound, the TGI with HCT-15 colon is more than 100 µM; in the assay with MDA-N it was more than 100 µM; in the assay with HCC-2998 colon, more than 100 µM; in the assay with SK-MEL-2 melanoma, more than 100 µM; in the assay on OVCAR-8 ovarian, more than 100 µM; in the assay on LOX IMVI melanoma, more than 85.2 µM. Further, the TGI in the assay on CCRF-CEM leukemia and in the assay with CAKI-1 renal was more than 100 µM each time.
As for `COc1cc(Nc2nc3ccc(C(F)(F)F)cc3nc2C(=O)O)cc(OC)c1OC`, the TGI with MALME-3M melanoma is 88.8 µM; with SK-OV-3 ovarian it was more than 100 µM; with SW-620 colon it was 59.9 µM; with EKVX NSCLC it was 97.2 µM; in the assay with ACHN renal it was 51.5 µM; in the assay on TK-10 renal, 62.2 µM. Also, the TGI in the assay on BT-549 breast was 37.9 µM; with IGROV1 ovarian, 66.6 µM; in the assay with NCI-H23 lung it was 45.5 µM; in the assay on 786-0 renal it was 74.6 µM; in the assay on SK-MEL-28 melanoma, 80.3 µM; in the assay on SN12C renal it was 38.1 µM. In addition, the TGI in the assay with HCT-15 colon is 35.3 µM; with MDA-N it was 46.8 µM; in the assay with HCC-2998 colon, 34.5 µM; in the assay with SK-MEL-2 melanoma, 45.3 µM; with OVCAR-8 ovarian, 72.1 µM; with LOX IMVI melanoma, 35.6 µM. Also, the TGI in the assay with CCRF-CEM leukemia was more than 100 µM; in the assay with CAKI-1 renal, 61.7 µM.
